Results reported in PubChem BioAssay AID330 (DTP/NCI, 2004).
“And” between values parts separate entries of the source, which are not always exact repeats. Equal values may be shown once. Toxic doses and inconclusive results are not listed.

Tested on: P388 leukemia ip, CD2F1 mice, survival T/C
Experiment: NCI In Vivo Anticancer Drug Screen. Data for tumor model P388 Leukemia (intraperitoneal) in CD2F1 (CDF1) mice
Conditions: endpoint: median survival time, higher = longer survival
Outline: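 Mice carrying the transplanted tumor received test compound or vehicle. Survival was recorded in each group, and the value is the treated-group measurement divided by that of the vehicle-treated control group.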

[1] = dose: 100.0 mg/kg/injection, schedule: Q01DX009 (ip), vehicle: Klucel (hydroxypropylcellulose) (HPC)
[2] = dose: 200.0 mg/kg/injection, schedule: Q01DX009 (ip), vehicle: Klucel (hydroxypropylcellulose) (HPC)
[3] = dose: 60.0 mg/kg/injection, schedule: Q01DX005 (ip), vehicle: saline with Tween-80
[4] = dose: 120.0 mg/kg/injection, schedule: Q01DX005 (ip), vehicle: saline with Tween-80
[5] = dose: 25.0 mg/kg/injection, schedule: Q01DX009 (ip), vehicle: saline
[6] = dose: 50.0 mg/kg/injection, schedule: Q01DX009 (ip), vehicle: saline
[7] = dose: 100.0 mg/kg/injection, schedule: Q01DX009 (ip), vehicle: saline
[8] = dose: 50.0 mg/kg/injection, schedule: Q01DX005 (ip), vehicle: Klucel (hydroxypropylcellulose) (HPC)
[9] = dose: 100.0 mg/kg/injection, schedule: Q01DX005 (ip), vehicle: Klucel (hydroxypropylcellulose) (HPC)
[10] = dose: 200.0 mg/kg/injection, schedule: Q01DX005 (ip), vehicle: Klucel (hydroxypropylcellulose) (HPC)
[11] = dose: 25.0 mg/kg/injection, schedule: Q01DX009 (ip), vehicle: Klucel (hydroxypropylcellulose) (HPC)
[12] = dose: 50.0 mg/kg/injection, schedule: Q01DX009 (ip), vehicle: saline with Tween-80
[13] = dose: 100.0 mg/kg/injection, schedule: Q01DX009 (ip), vehicle: saline with Tween-80
[14] = dose: 200.0 mg/kg/injection, schedule: Q01DX009 (ip), vehicle: saline with Tween-80
[15] = dose: 60.0 mg/kg/injection, schedule: Q01DX005 (ip), vehicle: saline
[16] = dose: 120.0 mg/kg/injection, schedule: Q01DX005 (ip), vehicle: saline
[17] = dose: 240.0 mg/kg/injection, schedule: Q01DX005 (ip), vehicle: saline
[18] = dose: 25.0 mg/kg/injection, schedule: Q01DX009 (ip), vehicle: saline with Tween-80
[19] = dose: 400.0 mg/kg/injection, schedule: Q01DX009 (ip), vehicle: saline with Tween-80
[20] = dose: 50.0 mg/kg/injection, schedule: Q01DX005 (ip), vehicle: saline with Tween-80
[21] = dose: 100.0 mg/kg/injection, schedule: Q01DX005 (ip), vehicle: saline with Tween-80
[22] = dose: 200.0 mg/kg/injection, schedule: Q01DX005 (ip), vehicle: saline with Tween-80
[23] = dose: 200.0 mg/kg/injection, schedule: Q01DX009 (ip), vehicle: saline

For `CC1C(=O)OC2C1CCC1(C)C=CC(=O)C(C)C21` (stereo not drawn), the T/C (dose: 12.5 mg/kg/injection, schedule: Q04DX002 (ip), vehicle: saline with Tween-80) was 110 % of control and the T/C (dose: 25.0 mg/kg/injection, schedule: Q04DX002 (ip), vehicle: saline with Tween-80) was 103 % of control.

For `CCOC(=O)C1(CC)C(=O)C=C(c2ccccc2)CC1c1ccccc1` (stereo not drawn), the T/C [1] was 99 % of control, the T/C [2] was 94 % of control and the T/C (dose: 400.0 mg/kg/injection, schedule: Q01DX009 (ip), vehicle: Klucel (hydroxypropylcellulose) (HPC)) was 94 % of control.

`Nc1nnc(-c2ccc(Cl)cc2)o1` was tested, and the T/C [3] was 100 % of control, the T/C [4] was 110 % of control and the T/C (dose: 240.0 mg/kg/injection, schedule: Q01DX005 (ip), vehicle: saline with Tween-80) was 103 % of control.

For `CC1(c2ccc3ccccc3c2)C(C#N)(C#N)C1(C#N)C#N`, the T/C (dose: 12.5 mg/kg/injection, schedule: Q01DX009 (ip), vehicle: saline) was 100 % of control, the T/C [5] was 102 % of control and the T/C [6] was 89 % of control. For the same molecule, the T/C [7] was 103 % of control.

In the case of `Clc1cc(Cl)nc(N2CCCCC2)n1`, the T/C (dose: 25.0 mg/kg/injection, schedule: Q04DX003 (ip), vehicle: Klucel (hydroxypropylcellulose) (HPC)) is reported as 105 % of control, the T/C (dose: 50.0 mg/kg/injection, schedule: Q04DX003 (ip), vehicle: Klucel (hydroxypropylcellulose) (HPC)) is reported as 102 % of control and the T/C (dose: 100.0 mg/kg/injection, schedule: Q04DX003 (ip), vehicle: Klucel (hydroxypropylcellulose) (HPC)) is reported as 100 % of control. For the same molecule, the T/C (dose: 200.0 mg/kg/injection, schedule: Q04DX003 (ip), vehicle: Klucel (hydroxypropylcellulose) (HPC)) was 105 % of control.

In the case of `Cc1ccc(C(=O)Nc2c(C)cccc2C)cc1`, the T/C [3] is reported as 98 % of control and the T/C [4] is reported as 92 % of control.

With `CC1COCCOCCOCC(C)OC(=O)CSCC(=O)O1` (stereo not drawn) the T/C (dose: 100.0 mg/kg/injection, schedule: Q04DX003 (ip), vehicle: saline) was 100 % of control, the T/C (dose: 200.0 mg/kg/injection, schedule: Q04DX003 (ip), vehicle: saline) was 104 % of control and the T/C (dose: 400.0 mg/kg/injection, schedule: Q04DX003 (ip), vehicle: saline) was 92 % of control.

With `NC(=NCc1ccc2c(c1)OCO2)N[N+](=O)[O-]` the T/C [8] was 104 % of control, the T/C [9] was 100 % of control and the T/C [10] was 96 % of control.

With `O=c1[nH]nc(-c2ccccc2)c2c(/C=C/c3ccccc3)onc12` the T/C [3] was 100 % of control and the T/C [4] was 98 % of control.

For `COc1ccc(/C(C)=N/NS(=O)(=O)c2ccc(C)cc2)cc1OC`, the T/C (dose: 25.0 mg/kg/injection, schedule: Q01DX009 (ip), vehicle: other) was 97 % of control, the T/C (dose: 50.0 mg/kg/injection, schedule: Q01DX009 (ip), vehicle: other) was 96 % of control and the T/C (dose: 100.0 mg/kg/injection, schedule: Q01DX009 (ip), vehicle: other) was 93 % of control. The T/C (dose: 200.0 mg/kg/injection, schedule: Q01DX009 (ip), vehicle: other) was 97 % of control and the T/C (dose: 400.0 mg/kg/injection, schedule: Q01DX009 (ip), vehicle: other) was 88 % of control.

In the case of `C[CH2][Sn]([CH2]C(=O)OC)([CH2]C(=O)OC)[c]1ccccc1`, the T/C (dose: 25.0 mg/kg/injection, schedule: Q01DX005 (ip), vehicle: saline) is reported as 157 % of control, the T/C (dose: 50.0 mg/kg/injection, schedule: Q01DX005 (ip), vehicle: saline) is reported as 181 % of control and the T/C (dose: 100.0 mg/kg/injection, schedule: Q01DX005 (ip), vehicle: saline) is reported as 168 % of control.

With `N#CSc1ccc2nc(NC(NC(=O)c3ccccc3)C(Cl)(Cl)Cl)sc2c1` (stereo not drawn) the T/C (dose: 6.25 mg/kg/injection, schedule: Q01DX009 (ip), vehicle: Klucel (hydroxypropylcellulose) (HPC)) was 102 % of control, the T/C (dose: 12.5 mg/kg/injection, schedule: Q01DX009 (ip), vehicle: Klucel (hydroxypropylcellulose) (HPC)) was 108 % of control and the T/C [11] was 101 % of control.

`NC(=O)NC1(C(=O)O)CCCC1` was tested, and the T/C [11] was 102 % of control, the T/C (dose: 50.0 mg/kg/injection, schedule: Q01DX009 (ip), vehicle: Klucel (hydroxypropylcellulose) (HPC)) was 103 % of control and the T/C [1] was 103 % of control. For the same molecule, the T/C [2] was 105 % of control.

With `CN(C)c1cc(=O)c2ccc3ccccc3c2o1` the T/C [12] was 96 % of control, the T/C [13] was 96 % of control and the T/C [14] was 93 % of control.

`C=CCOCC1CN2CCOC2(C)O1` (stereo not drawn) was tested, and the T/C (dose: 200.0 mg/kg/injection, schedule: Q01DX009 (ip), vehicle: water) was 105 % of control, the T/C (dose: 400.0 mg/kg/injection, schedule: Q01DX009 (ip), vehicle: water) was 97 % of control and the T/C (dose: 800.0 mg/kg/injection, schedule: Q01DX009 (ip), vehicle: water) was 105 % of control. The T/C (dose: 1600.0 mg/kg/injection, schedule: Q01DX009 (ip), vehicle: water) was 102 % of control.

`COc1ccc(S(=O)(=O)O)cc1NS(=O)(=O)c1ccc(C)cc1` was tested, and the T/C [15] was 102 % of control, the T/C [16] was 98 % of control and the T/C [17] was 103 % of control.

`O=C1O/C(=C2/OC(=O)c3ccccc32)c2ccccc21` was tested, and the T/C (dose: 3.13 mg/kg/injection, schedule: Q01DX009 (ip), vehicle: saline with Tween-80) was 94 % of control, the T/C (dose: 6.25 mg/kg/injection, schedule: Q01DX009 (ip), vehicle: saline with Tween-80) was 100 % of control and the T/C (dose: 12.5 mg/kg/injection, schedule: Q01DX009 (ip), vehicle: saline with Tween-80) was 100 % of control and 91 % of control. The T/C [18] was 100 % of control, the T/C [12] was 88 % of control and the T/C [13] was 88 % of control. For the same molecule, the T/C [14] was 90 % of control and the T/C [19] was 92 % of control.

For `O=CNc1nc[nH]c1-c1noc(=O)[nH]1`, the T/C (dose: 25.0 mg/kg/injection, schedule: Q04DX002 (ip), vehicle: saline) was 104 % of control, the T/C (dose: 50.0 mg/kg/injection, schedule: Q04DX002 (ip), vehicle: saline) was 104 % of control and the T/C (dose: 100.0 mg/kg/injection, schedule: Q04DX002 (ip), vehicle: saline) was 104 % of control and 110 % of control.

For `CC/C(=N\OC(=O)Nc1ccccc1)c1ccc(OC(=O)Nc2ccccc2)cc1`, the T/C [20] was 99 % of control, the T/C [21] was 95 % of control and the T/C [22] was 104 % of control.

With `C=CCCc1ccccc1/C=N/NS(=O)(=O)c1ccc(C)cc1` the T/C (dose: 100.0 mg/kg/injection, schedule: Q01DX001 (ip), vehicle: saline with Tween-80) was 97 % of control, the T/C (dose: 200.0 mg/kg/injection, schedule: Q01DX001 (ip), vehicle: saline with Tween-80) was 88 % of control and the T/C (dose: 400.0 mg/kg/injection, schedule: Q01DX001 (ip), vehicle: saline with Tween-80) was 101 % of control.

In the case of `CN(C)CCCNC(CC#N)CCC#N` (stereo not drawn), the T/C [6] is reported as 109 % of control, the T/C [7] is reported as 104 % of control and the T/C [23] is reported as 109 % of control.

`COc1cccc(OC)c1N` was tested, and the T/C [12] was 108 % of control, the T/C [13] was 108 % of control and the T/C [14] was 92 % of control. The T/C [19] was 90 % of control.

`Oc1ccc2c(c1O)/C(=C/C=NCC1(O)OCC(O)C(O)C1O)C=N2` (stereo not drawn) was tested, and the T/C [15] was 101 % of control, the T/C [16] was 98 % of control and the T/C [17] was 101 % of control.

In the case of `CN(C)c1nc(NO)nc(N(C)C)n1`, the T/C [12] is reported as 103 % of control, the T/C [13] is reported as 107 % of control and the T/C [14] is reported as 112 % of control.

`CCOC(=O)N1CCN(CCCCCOc2ccc(CC(C)(C)C)cc2Cl)CC1` was tested, and the T/C [18] was 110 % of control, the T/C [5] was 93 % of control and the T/C [12] was 106 % of control. The T/C [6] was 100 % of control, the T/C [13] was 111 % of control and the T/C [7] was 113 % of control. The T/C [14] was 117 % of control and the T/C [23] was 92 % of control.

With `COC(=O)c1c(/C(=N/Nc2ccc([N+](=O)[O-])cc2)[N+](=O)[O-])ssc1=N` the T/C [8] was 103 % of control, the T/C [9] was 97 % of control and the T/C [10] was 103 % of control.

`Cc1nc(N)c2c3c(sc2n1)CCCC3` was tested, and the T/C [20] was 95 % of control, the T/C [21] was 97 % of control and the T/C [22] was 100 % of control.

With `CCOc1nc(C(=O)O)cc2ccsc12` the T/C (dose: 100.0 mg/kg/injection, schedule: Q01DX001 (ip), vehicle: Klucel (hydroxypropylcellulose) (HPC)) was 90 % of control, the T/C (dose: 200.0 mg/kg/injection, schedule: Q01DX001 (ip), vehicle: Klucel (hydroxypropylcellulose) (HPC)) was 94 % of control and the T/C (dose: 400.0 mg/kg/injection, schedule: Q01DX001 (ip), vehicle: Klucel (hydroxypropylcellulose) (HPC)) was 96 % of control.
